Where a name gives a salt, the structure may show the parent alone. Read-outs that look alike come from different tables or passages of the source.
Tests used:
Assay in all cases: AK assay 384-well format, Prestwick library screening
K. pneumoniae = assay type: cell-based, Klebsiella pneumoniae; settings: 50 μM final drug concentration; for fold induction at 50 µM: Klebsiella pneumoniae, 3 h
E. cloacae = assay type: cell-based, Enterobacter cloacae; settings: 50 μM final drug concentration; for fold induction at 50 µM: Enterobacter cloacae, 3 h
P. aeruginosa = assay type: cell-based, Pseudomonas aeruginosa; settings: 50 μM final drug concentration; for fold induction at 50 µM: Pseudomonas aeruginosa, 3 h
E. coli = assay type: cell-based, Escherichia coli; settings: 50 μM final drug concentration; for fold induction at 50 µM: Escherichia coli, 3 h
[1] = test system: A. baumannii strain 98-37-09; assay type: cell-based, Acinetobacter baumannii; settings: 50 μM final drug concentration; for fold induction at 50 µM: Acinetobacter baumannii, 983709, 3 h
[2] = test system: S. aureus strain USA300-0114; assay type: cell-based, Staphylococcus aureus; settings: 50 μM final drug concentration; for fold induction at 50 µM: Staphylococcus aureus, USA300, 3 h
E. faecium = assay type: cell-based, Enterococcus faecium; settings: 50 μM final drug concentration; for fold induction at 50 µM: Enterococcus faecium, 3 h
[3] = planktonic K. pneumoniae, positive cutoff 3-fold increase, read-out: AK-based Prestwick library screening result, K. pneumoniae (fold increase in extracellular AK activity)
[4] = planktonic E. cloacae, positive cutoff 3-fold increase, read-out: AK-based Prestwick library screening result, E. cloacae (fold increase in extracellular AK activity)
[5] = planktonic P. aeruginosa, positive cutoff 3-fold increase, read-out: AK-based Prestwick library screening result, P. aeruginosa (fold increase in extracellular AK activity)
[6] = planktonic E. coli, positive cutoff 3-fold increase, read-out: AK-based Prestwick library screening result, E. coli (fold increase in extracellular AK activity)
[7] = planktonic A. baumannii, positive cutoff 3-fold increase, read-out: AK-based Prestwick library screening result, A. baumannii (fold increase in extracellular AK activity)
[8] = planktonic S. aureus, positive cutoff 3-fold increase, read-out: AK-based Prestwick library screening result, S. aureus (fold increase in extracellular AK activity)
[9] = planktonic E. faecium, positive cutoff 3-fold increase, read-out: AK-based Prestwick library screening result, E. faecium (fold increase in extracellular AK activity)
[10] = planktonic, cutoff for positive-scoring molecules 3-fold increase

## NS(=O)(=O)c1cc2c(cc1Cl)NC(CC1CCCC1)NS2(=O)=O (stereo not shown) [Cyclopenthiazide]
K. pneumoniae; [3]
  fold induction at 50 µM: 0.8
E. cloacae; [4]
  fold induction at 50 µM: 1.2
P. aeruginosa; [5]
  fold induction at 50 µM: 0.8
E. coli; [6]
  fold induction at 50 µM: 0.8
[1]; [7]
  fold induction at 50 µM: 0.8
[2]; [8]
  fold induction at 50 µM: 0.7
E. faecium; [9]
  fold induction at 50 µM: 0.9

## C=C1c2cccc(O)c2C(=O)C2=C(O)[C@]3(O)C(=O)C(C(N)=O)=C(O)[C@@H](N(C)C)[C@@H]3[C@@H](O)[C@H]12 [Methacycline hydrochloride]
K. pneumoniae; cutoff for positive-scoring molecules 3-fold increase, read-out: AK-based Prestwick Library Screening Results, K. pneumoniae (fold increase in extracellular AK activity)
  fold induction at 50 µM: 0.2
E. cloacae; cutoff for positive-scoring molecules 3-fold increase, read-out: AK-based Prestwick Library Screening Results, E. cloacae (fold increase in extracellular AK activity)
  fold induction at 50 µM: 0.4
P. aeruginosa; cutoff for positive-scoring molecules 3-fold increase, read-out: AK-based Prestwick Library Screening Results, P. aeruginosa (fold increase in extracellular AK activity)
  fold induction at 50 µM: 0.2
E. coli; cutoff for positive-scoring molecules 3-fold increase, read-out: AK-based Prestwick Library Screening Results, E. coli (fold increase in extracellular AK activity)
  fold induction at 50 µM: 3.2
[1]; cutoff for positive-scoring molecules 3-fold increase, read-out: AK-based Prestwick Library Screening Results, A. baumannii (fold increase in extracellular AK activity)
  fold induction at 50 µM: 4.2
[2]; cutoff for positive-scoring molecules 3-fold increase, read-out: AK-based Prestwick Library Screening Results, S. aureus (fold increase in extracellular AK activity)
  fold induction at 50 µM: 1.9
E. faecium; cutoff for positive-scoring molecules 3-fold increase, read-out: AK-based Prestwick Library Screening Results, E. faecium (fold increase in extracellular AK activity)
  fold induction at 50 µM: 0.9

## C[C@@H]1CN([C@H]2CC[C@](C#N)(c3ccc(F)cc3)CC2)CC[C@]1(C(=O)O)c1ccccc1 [Levocabastine hydrochloride]
K. pneumoniae; [3]
  fold induction at 50 µM: 1.1
E. cloacae; [4]
  fold induction at 50 µM: 1.6
P. aeruginosa; [5]
  fold induction at 50 µM: 1
E. coli; [6]
  fold induction at 50 µM: 1.1
[1]; [7]
  fold induction at 50 µM: 1.2
[2]; [8]
  fold induction at 50 µM: 1.1
E. faecium; [9]
  fold induction at 50 µM: 1

## Spiramycin
K. pneumoniae; [10]
  AK-based Prestwick Library Screening Results, K. pneumoniae (fold increase in extracellular AK activity): 0.8
E. cloacae; [10]
  AK-based Prestwick Library Screening Results, E. cloacae (fold increase in extracellular AK activity): 1.2
P. aeruginosa; [10]
  AK-based Prestwick Library Screening Results, P. aeruginosa (fold increase in extracellular AK activity): 0.7
E. coli; [10]
  AK-based Prestwick Library Screening Results, E. coli (fold increase in extracellular AK activity): 0.9
[1]; [10]
  AK-based Prestwick Library Screening Results, A. baumannii (fold increase in extracellular AK activity): 0.9
[2]; [10]
  AK-based Prestwick Library Screening Results, S. aureus (fold increase in extracellular AK activity): 6.6
E. faecium; [10]
  AK-based Prestwick Library Screening Results, E. faecium (fold increase in extracellular AK activity): 1.0

## O=C(NCC1CCCCN1)c1cc(OCC(F)(F)F)ccc1OCC(F)(F)F (stereo not shown) [Flecainide acetate]
K. pneumoniae; planktonic, cutoff for positive-scoring molecules 3-fold increase, read-out: AK-based Prestwick Library Screening Results, K. pneumoniae (fold increase in extracellular AK activity)
  fold induction at 50 µM: 0.6
E. cloacae; planktonic, cutoff for positive-scoring molecules 3-fold increase, read-out: AK-based Prestwick Library Screening Results, E. cloacae (fold increase in extracellular AK activity)
  fold induction at 50 µM: 0.7
P. aeruginosa; planktonic, cutoff for positive-scoring molecules 3-fold increase, read-out: AK-based Prestwick Library Screening Results, P. aeruginosa (fold increase in extracellular AK activity)
  fold induction at 50 µM: 0.6
E. coli; planktonic, cutoff for positive-scoring molecules 3-fold increase, read-out: AK-based Prestwick Library Screening Results, E. coli (fold increase in extracellular AK activity)
  fold induction at 50 µM: 0.6
[1]; planktonic, cutoff for positive-scoring molecules 3-fold increase, read-out: AK-based Prestwick Library Screening Results, A. baumannii (fold increase in extracellular AK activity)
  fold induction at 50 µM: 0.8
[2]; planktonic, cutoff for positive-scoring molecules 3-fold increase, read-out: AK-based Prestwick Library Screening Results, S. aureus (fold increase in extracellular AK activity)
  fold induction at 50 µM: 0.7
E. faecium; planktonic, cutoff for positive-scoring molecules 3-fold increase, read-out: AK-based Prestwick Library Screening Results, E. faecium (fold increase in extracellular AK activity)
  fold induction at 50 µM: 0.9

## Cc1cccc(Nc2ccncc2S(=O)(=O)NC(=O)NC(C)C)c1 [Torsemide]
K. pneumoniae; [3]
  fold induction at 50 µM: 1.3
E. cloacae; [4]
  fold induction at 50 µM: 1.4
P. aeruginosa; [5]
  fold induction at 50 µM: 1.1
E. coli; [6]
  fold induction at 50 µM: 1.1
[1]; [7]
  fold induction at 50 µM: 1.6
[2]; [8]
  fold induction at 50 µM: 1.5
E. faecium; [9]
  fold induction at 50 µM: 1

## O=C(CCNNC(=O)c1ccncc1)NCc1ccccc1 [Nialamide]
K. pneumoniae; [3]
  fold induction at 50 µM: 0.9
E. cloacae; [4]
  fold induction at 50 µM: 1.4
P. aeruginosa; [5]
  fold induction at 50 µM: 1.2
E. coli; [6]
  fold induction at 50 µM: 1.2
[1]; [7]
  fold induction at 50 µM: 1
[2]; [8]
  fold induction at 50 µM: 1.2
E. faecium; [9]
  fold induction at 50 µM: 1.1

## COc1ccc(CC2c3cc(OC)c(OC)cc3CCN2C)cc1OC (racemic) [Laudanosine (R,S)]
K. pneumoniae; planktonic K. pneumoniae, […]
  AK-based Prestwick Library Screening Results, K. pneumoniae (increase in extracellular AK activity): 0.7
E. cloacae; planktonic E. cloacae, […]
  AK-based Prestwick Library Screening Results, E. cloacae (increase in extracellular AK activity): 1.3
P. aeruginosa; planktonic P. aeruginosa, […]
  AK-based Prestwick Library Screening Results, P. aeruginosa (increase in extracellular AK activity): 0.9
E. coli; planktonic E. coli, […]
  AK-based Prestwick Library Screening Results, E. coli (increase in extracellular AK activity): 1.0
[1]; planktonic A. baumannii, […]
  AK-based Prestwick Library Screening Results, A. baumannii (increase in extracellular AK activity): 0.9
[2]; planktonic S. aureus, […]
  AK-based Prestwick Library Screening Results, S. aureus (increase in extracellular AK activity): 0.7
E. faecium; planktonic E. faecium, […]
  AK-based Prestwick Library Screening Results, E. faecium (increase in extracellular AK activity): 0.9

## C[C@@H](O)[C@H]1C(=O)N2C(C(=O)O)=C(SCCN=CN)C[C@H]12 [Imipenem]
K. pneumoniae; planktonic K. pneumoniae, cutoff for positive-scoring molecules 3-fold increase, read-out: AK-based Prestwick Library Screening Results, K. pneumoniae (increase in extracellular AK activity)
  fold induction at 50 µM: 1.7
E. cloacae; planktonic E. cloacae, cutoff for positive-scoring molecules 3-fold increase, read-out: AK-based Prestwick Library Screening Results, E. cloacae (increase in extracellular AK activity)
  fold induction at 50 µM: 2.4
P. aeruginosa; planktonic P. aeruginosa, cutoff for positive-scoring molecules 3-fold increase, read-out: AK-based Prestwick Library Screening Results, P. aeruginosa (increase in extracellular AK activity)
  fold induction at 50 µM: 1
E. coli; planktonic E. coli, cutoff for positive-scoring molecules 3-fold increase, read-out: AK-based Prestwick Library Screening Results, E. coli (increase in extracellular AK activity)
  fold induction at 50 µM: 12.1
[1]; planktonic A. baumannii, cutoff for positive-scoring molecules 3-fold increase, read-out: AK-based Prestwick Library Screening Results, A. baumannii (increase in extracellular AK activity)
  fold induction at 50 µM: 1.2
[2]; planktonic S. aureus, cutoff for positive-scoring molecules 3-fold increase, read-out: AK-based Prestwick Library Screening Results, S. aureus (increase in extracellular AK activity)
  fold induction at 50 µM: 2.5
E. faecium; planktonic E. faecium, cutoff for positive-scoring molecules 3-fold increase, read-out: AK-based Prestwick Library Screening Results, E. faecium (increase in extracellular AK activity)
  fold induction at 50 µM: 0.9

## Cc1c(Cl)cccc1Nc1ccccc1C(=O)O [Tolfenamic acid]
K. pneumoniae; planktonic K. pneumoniae, 384-well, cutoff for positive-scoring molecules 3-fold increase, read-out: AK-based Prestwick Library Screening Results: K. pneumoniae (increase in extracellular AK activity)
  fold induction at 50 µM: 0.8
E. cloacae; planktonic E. cloacae, 384-well, cutoff for positive-scoring molecules 3-fold increase, read-out: AK-based Prestwick Library Screening Results: E. cloacae (increase in extracellular AK activity)
  fold induction at 50 µM: 1.6
P. aeruginosa; planktonic P. aeruginosa, 384-well, cutoff for positive-scoring molecules 3-fold increase, read-out: AK-based Prestwick Library Screening Results: P. aeruginosa (increase in extracellular AK activity)
  fold induction at 50 µM: 1.2
E. coli; planktonic E. coli, 384-well, cutoff for positive-scoring molecules 3-fold increase, read-out: AK-based Prestwick Library Screening Results: E. coli (increase in extracellular AK activity)
  fold induction at 50 µM: 1
[1]; planktonic A. baumannii, 384-well, cutoff for positive-scoring molecules 3-fold increase, read-out: AK-based Prestwick Library Screening Results: A. baumannii (increase in extracellular AK activity)
  fold induction at 50 µM: 1.4
[2]; planktonic S. aureus, 384-well, cutoff for positive-scoring molecules 3-fold increase, read-out: AK-based Prestwick Library Screening Results: S. aureus (increase in extracellular AK activity)
  fold induction at 50 µM: 0.5
E. faecium; planktonic E. faecium, 384-well, cutoff for positive-scoring molecules 3-fold increase, read-out: AK-based Prestwick Library Screening Results: E. faecium (increase in extracellular AK activity)
  fold induction at 50 µM: 1.1

Source: patent US10004701B2, “Methods and compositions for treating infection” (UNIVERSITY OF ROCHESTER, priority 2012, dated 2018)
